Data on 4 compounds can be found in patent publication US11191271B2, “Active compound combinations having insecticidal/acaricidal properties” (priority 2017, dated 2021).

The structures appear in SMILES notation.

What all share (assay type): in vivo
The test system of experiment [1] is cotton aphid (Aphis gossypii). Description: Aphis gossypii - spray test. As to conditions: for Efficacy in % after 6 days: mortality after 6 days; for Efficacy in % after 1 day: mortality after 1 day, cotton leaves. On the procedure: (§1) Formula for the Efficacy of the Combination of Two Compounds • The expected efficacy of a given combination of two compounds is calculated as follows (see Colby, S. R., “Calculating Synergistic and antagonistic Responses of Herbicide Combinations”, Weeds 15, pp. 20-22, 1967): • If • X is the efficacy expressed in % mortality of the untreated control for test compound A at a concentration of m ppm respectively m g/ha, • Y is the efficacy expressed in % mortality of the untreated control for test compound B at a concentration of n ppm respectively n g/ha, • E is the efficacy expressed in % mortality of the untreated control using the mixture of A and B at m and n ppm respectively m and n g/ha, • then is
(§2) [formula] • If the observed insecticidal efficacy of the combination is higher than the one calculated as “E”, then the combination of the two compounds is more than additive, i.e. there is a synergistic effect.
Aphis gossypii—Spray Test
(§3) Solvent: 7 parts by weight of dimethylformamide
(§4) Emulsifier: alkylaryl polyglycol ether
(§5) To produce a suitable preparation of active compound, 1 part by weight of active compound is mixed with the stated amount of solvent and is diluted with water, containing an emulsifier concentration of 1000 ppm, to the desired concentration. Further test concentrations are prepared by dilution with emulsifier containing water.
Cotton leaves (Gossypium hirsutum) which are heavily infested with the cotton aphid (Aphis gossypii) are treated by being sprayed with the preparation of the active compound of the desired concentration.
After the specified period of time the mortality in % is determined. 100% means all the aphids have been killed; 0% means none of the aphids have been killed. The mortality values determined thus are recalculated using the Colby-formula (see above).

The subject of experiment [2] is caterpillars of the fall army worm (Spodoptera frugiperda). Description: Spodoptera frugiperda - spray test. To be noted: for Efficacy in % after 1 day: mortality after 1 day; for Efficacy in % after 2 days: mortality after 2 days; for Efficacy in % after 3 days: mortality after 3 days; for Efficacy in % after 6 days: mortality after 6 days. On the procedure:
as §1, §2
Spodoptera frugiperda—Spray Test
as §3, §4, §5
Cotton leaves (Gossypium hirsutum) are treated by being sprayed with the preparation of the active compound of the desired concentration and are infested with caterpillars of the fall army worm (Spodoptera frugiperda).
After the specified period of time mortality in % is determined. 100% means all the caterpillars have been killed and 0% means none of the caterpillars have been killed. The mortality values determined thus are recalculated using the Colby-formula (see above).

In experiment [3] the test system is two spotted spidermite (Tetranychus urticae). Description: Tetranychus urticae - spray test OP-resistant. As to conditions: for Efficacy in % after 6 days: mortality after 6 days; for Efficacy in % after 2 days: mortality after 2 days. As to the method:
as §1, §2
Tetranychus urticae—Spray Test OP-Resistant
To produce a suitable preparation of active compound, 1 part by weight of active compound is mixed with the stated amount of solvents and is diluted with water, containing an emulsifier concentration of 1000 ppm, to the desired concentration. Further test concentrations are prepared by dilution with emulsifier containing water.
French bean (Phaseolus vulgaris) leaf disks infected with all instars of the two spotted spidermite (Tetranychus urticae), are sprayed with a preparation of the active ingredient of the desired concentration.
After the specified period of time, mortality in % is determined. 100% means all spider mites have been killed and 0% means none of the spider mites have been killed. The mortality values determined thus are recalculated using the Colby-formula (see above).

Regarding `Cc1cc(F)c(N=C2SCC(=O)N2CC(F)(F)F)cc1[S+]([O-])CC(F)(F)F` (stereo not shown) [Cpd of formula (I)], the “Efficacy in % after 6 days” value in experiment [1] (0.8 ppm), in experiment [1] (1.6 ppm), in experiment [2] (0.3 ppm), in experiment [2] (0.6 ppm), in experiment [2] (1.2 ppm) and in experiment [3] (0.1 g ai/ha) was 0% throughout. Besides, the “Efficacy in % after 1 day” value in experiment [1] (1.6 ppm), in experiment [2] (0.3 ppm), in experiment [2] (0.6 ppm) and in experiment [2] (1.2 ppm) was 0% in each case. Also, the “Efficacy in % after 2 days” value in experiment [2] (0.3 ppm), in experiment [2] (0.6 ppm), in experiment [3] (0.4 g ai/ha), in experiment [3] (1.6 g ai/ha) and in experiment [3] (6.4 g ai/ha) was 0% each time. Moreover, the “Efficacy in % after 3 days” value in experiment [2] (0.3 ppm), in experiment [2] (0.6 ppm) and in experiment [2] (1.2 ppm) was 0% throughout.

On to `CNC(=O)c1cc(C#N)cc(C)c1NC(=O)c1cc(Br)nn1-c1ncccc1Cl` [Cyantraniliprole, 3-bromo-1-(3-chloro-2-pyridyl)-4′-cyano-2′-methyl-6′-(methylcarbamoyl)pyrazole-5-carboxanilide], for which the “Efficacy in % after 2 days” value in experiment [2] (0.12 ppm), in experiment [2] (0.24 ppm), in experiment [3] (0.2 g ai/ha), in experiment [3] (0.8 g ai/ha) and in experiment [3] (3.2 g ai/ha) was 0% in each case. Moreover, the “Efficacy in % after 3 days” value is 0% in experiment [2] (0.12 ppm), 10% in experiment [2] (0.24 ppm) and 60% in experiment [2] (0.48 ppm). Besides, the “Efficacy in % after 6 days” value is given as 10% in experiment [2] (0.12 ppm), 20% in experiment [2] (0.24 ppm) and 70% in experiment [2] (0.48 ppm). In addition, the “Efficacy in % after 1 day” value in experiment [2] (0.24 ppm) is given as 0%.

In the case of `CNC(=O)c1cc(Cl)cc(C)c1NC(=O)c1cc(Br)nn1-c1ncccc1Cl` [Chlorantraniliprole, 3-bromo-4′-chloro-1-(3-chloro-2-pyridyl)-2′-methyl-6′-(methylcarbamoyl)pyrazole-5-carboxanilide], in experiment [1] (8 ppm), the “Efficacy in % after 1 day” value was 10%. The “Efficacy in % after 6 days” value in experiment [1] (8 ppm) is given as 45%. The “Efficacy in % after 2 days” value in experiment [3] (0.2 g ai/ha), in experiment [3] (0.8 g ai/ha) and in experiment [3] (3.2 g ai/ha) was 0% in each case.

For the compound `CNC(=O)c1cc(C#N)cc(C)c1NC(=O)c1cc(Cn2nnc(C(F)(F)F)n2)nn1-c1ncccc1Cl` [Tetraniliprole, 1-(3-chloro-2-pyridyl)-4′-cyano-2′-methyl-6′-methylcarbamoyl-3-{[5-(trifluoromethyl)-2H-tetrazol-2-yl]methyl}pyrazole-5-carboxanilide], the figures for the “Efficacy in % after 1 day” value in experiment [2] (0.06 ppm), in experiment [2] (0.12 ppm) and in experiment [2] (0.24 ppm) were 0%, 30% and 40%, respectively. The “Efficacy in % after 2 days” value in experiment [2] (0.06 ppm) is recorded as 60%; in experiment [3] (0.2 g ai/ha), 0%; in experiment [3] (0.8 g ai/ha) it was 0%; in experiment [3] (3.2 g ai/ha), 0%. The “Efficacy in % after 6 days” value in experiment [3] (0.05 g ai/ha) is 0%.
